The values below come from patent US9096524B2, “Anthelmintic agents and their use” (Intervet International B.V., priority 2009, dated 2015).

Read-outs that look alike come from different tables or passages of the source. A value given as a limit tells only on which side of the number the result lay.

For this assay, the system named is A. galli (intestinal roundworm of chicken) larval stage 3; O. dentatum (nodular worm of swine) larval stages 3 and 4. Nature of the assay: Activity against Ascaridia galli and Oesophagostomum dentatum larvae in vitro (minimum effective concentration). It counts as cell-based.
Setting [1] is: read-out: MEC (minimum effective concentration) against one or more of the tested nematodes, in vitro, one or more of A. galli L3, O. dentatum L3, L4, threshold 1 μM.
Where [2] appears, read: read-out: MEC (minimum effective concentration) against one or more of the tested nematodes, in vitro, one or more of A. galli L3, O. dentatum L3, L4, threshold 7 μM.
Where [3] appears, read: read-out: MEC (minimum effective concentration) against two or more of the tested nematodes, in vitro, two or more of A. galli L3, O. dentatum L3, L4, threshold 1 μM.
Setting [4] is: in vitro, one or more of A. galli L3, O. dentatum L3, L4, threshold 1 μM, read-out: MEC (minimum effective concentration) against one or more of the tested nematodes.
The mark [5] stands for this setting: in vitro, one or more of A. galli L3, O. dentatum L3, L4, threshold 7 μM, read-out: MEC (minimum effective concentration) against one or more of the tested nematodes.
The mark [6] stands for this setting: in vitro, two or more of A. galli L3, O. dentatum L3, L4, threshold 1 μM, read-out: MEC (minimum effective concentration) against two or more of the tested nematodes.

Regarding `O=C(CC(=O)N1CCN(c2ccc(C(F)(F)F)cc2)CC1)N1CCC(Nc2ccc([N+](=O)[O-])c(C(F)(F)F)c2)CC1` [Example 78, 1-[4-(4-nitro-3-trifluoromethyl-phenylamino)-piperidin-1-yl]-3-[4-(4-trifluoromethyl-phenyl)-piperazin-1-yl]-propane-1,3-dione], the minimal effective concentration by setting is: under setting [1], less than 1 µM; under setting [2], less than 7 µM; under setting [3], less than 1 µM.

Consider `O=C(CCCN1CCN(c2ccc(C(F)(F)F)cc2)CC1)N1CCC(Oc2ccc([N+](=O)[O-])c(C(F)(F)F)c2)CC1` [Example 79, 1-[4-(4-nitro-3-trifluoromethyl-phenoxy)-piperidin-1-yl]-4-[4-(4-trifluoromethyl-phenyl)-piperazin-1-yl]-butan-1-one], for which the minimal effective concentration under setting [1] was less than 1 µM, the minimal effective concentration under setting [2] was less than 7 µM and the minimal effective concentration under setting [3] was less than 1 µM.

For the molecule `O=C(CCCN1CCN(c2ccc(C(F)(F)F)cc2)CC1)N1CCC(Nc2cccc(C(F)(F)F)c2)CC1` [Example 81, 1-[4-(3-trifluoromethyl-phenylamino)-piperidin-1-yl]-4-[4-(4-trifluoromethyl-phenyl)-piperazin-1-yl]-butan-1-one], the minimal effective concentration is, setting by setting: under setting [1], less than 1 µM; under setting [2], less than 7 µM; under setting [3], less than 1 µM.

For the molecule `N#Cc1ccc(NC2CCN(C(=O)CCCN3CCN(c4ccc(C(F)(F)F)cc4)CC3)CC2)cc1` [Example 83, 4-(1-{4-[4-(4-trifluoromethyl-phenyl)-piperazin-1-yl]-butyryl}-piperidin-4-ylamino)-benzonitrile], the minimal effective concentration is less than 1 µM under setting [1], less than 7 µM under setting [2] and less than 1 µM under setting [3].

Turning to `O=C(CCCN1CCN(c2ccc(C(F)(F)F)cc2)CC1)N1CCC(Nc2ccc([N+](=O)[O-])nc2)CC1` [Example 95, 1-[4-(6-nitro-pyridin-3-ylamino)-piperidin-1-yl]-4-[4-(4-trifluoromethyl-phenyl)-piperazin-1-yl]-butan-1-one], the minimal effective concentration is less than 1 µM under setting [1], less than 7 µM under setting [2] and less than 1 µM under setting [3].

Turning to `O=C(CCCN1CCN(c2ccc(C(F)(F)F)cc2)CC1)N1CCC(Nc2ccc([N+](=O)[O-])cn2)CC1` [Example 98, 1-[4-(5-nitro-pyridin-2-ylamino)-piperidin-1-yl]-4-[4-(4-trifluoromethyl-phenyl)-piperazin-1-yl]-butan-1-one], the minimal effective concentration was less than 1 µM under setting [1], less than 7 µM under setting [2] and less than 1 µM under setting [3].

`Cc1nc(NC2CCN(C(=O)CCCN3CCN(c4ccc(C(F)(F)F)cc4)CC3)CC2)ccc1[N+](=O)[O-]` [Example 101, 1-[4-(6-methyl-5-nitro-pyridin-2-ylamino)-piperidin-1-yl]-4-[4-(4-trifluoromethyl-phenyl)-piperazin-1-yl]-butan-1-one]: the minimal effective concentration under setting [1] was less than 1 µM, the minimal effective concentration under setting [2] was less than 7 µM and the minimal effective concentration under setting [3] was less than 1 µM.

For the molecule `N#Cc1ccc(NC2CCN(C(=O)CCCN3CCN(c4ccc(C(F)(F)F)cc4)CC3)CC2)cc1Cl` [Example 105, 2-chloro-4-(1-{4-[4-(4-trifluoromethyl-phenyl)-piperazin-1-yl]-butyryl}-piperidin-4-ylamino)-benzonitrile], the minimal effective concentration by setting is: under setting [1], less than 1 µM; under setting [2], less than 7 µM; under setting [3], less than 1 µM.

As for `CC(C)(C)c1ccc(N2CC3CN(CCC(=O)N4CCC(Nc5ccc([N+](=O)[O-])c(C(F)(F)F)c5)CC4)CC3C2)cc1` (centres unmarked) [Example 128, 3-[5-(4-tert-butyl-phenyl)-hexahydro-pyrrolo[3,4-c]pyrrol-2-yl]-1-[4-(4-nitro-3-trifluoromethyl-phenylamino)-piperidin-1-yl]-propan-1-one], the minimal effective concentration was less than 1 µM under setting [1], less than 7 µM under setting [2] and less than 1 µM under setting [3].

As to `CC(CN1CCN(c2ccc(C(C)(C)C)cc2)CC1)C(=O)N1CCC(Nc2ccc([N+](=O)[O-])c(C(F)(F)F)c2)CC1` (centres unmarked) [Example 130, 3-[4-(4-tert-butyl-phenyl)-piperazin-1-yl]-2-methyl-1-[4-(4-nitro-3-trifluoromethyl-phenylamino)-piperidin-1-yl]-propan-1-one], the minimal effective concentration by setting is: under setting [1], less than 1 µM; under setting [2], less than 7 µM; under setting [3], less than 1 µM.

`CC(C)(C)c1ccc(N2CCC(CCCC(=O)N3CCC(Nc4ccc([N+](=O)[O-])c(C(F)(F)F)c4)CC3)CC2)cc1` [Example 137, 4-[1-(4-tert-butyl-phenyl)-piperidin-4-yl]-1-[4-(4-nitro-3-trifluoromethyl-phenylamino)-piperidin-1-yl]-butan-1-one]: the minimal effective concentration by setting is: under setting [1], less than 1 µM; under setting [2], less than 7 µM; under setting [3], less than 1 µM.

Consider `O=C(CCC1CCN(c2ccc(C(F)(F)F)cc2)CC1)N1CCC(Nc2ccc([N+](=O)[O-])c(C(F)(F)F)c2)CC1` [Example 141, 1-[4-(4-nitro-3-trifluoromethyl-phenylamino)-piperidin-1-yl]-3-[1-(4-trifluoromethyl-phenyl)-piperidin-4-yl]-propan-1-one], for which the minimal effective concentration under setting [1] was less than 1 µM, the minimal effective concentration under setting [2] is less than 7 µM and the minimal effective concentration under setting [3] is less than 1 µM.

As to `O=C(CCC1CCN(c2ccc(Cl)cc2)CC1)N1CCC(Nc2ccc([N+](=O)[O-])c(C(F)(F)F)c2)CC1` [Example 144, 3-[1-(4-chloro-phenyl)-piperidin-4-yl]-1-[4-(4-nitro-3-trifluoromethyl-phenylamino)-piperidin-1-yl]-propan-1-one], the minimal effective concentration was less than 1 µM under setting [1], less than 7 µM under setting [2] and less than 1 µM under setting [3].

Take `CC(C)(C)c1ccc(N2CCC(CCC(=O)N3CCC(Nc4ccc([N+](=O)[O-])c(C(F)(F)F)c4)CC3)CC2)cc1` [Example 147, 3-[1-(4-tert-butyl-phenyl)-piperidin-4-yl]-1-[4-(4-nitro-3-trifluoromethyl-phenylamino)-piperidin-1-yl]-propan-1-one]: the minimal effective concentration under setting [1] was less than 1 µM, the minimal effective concentration under setting [2] is less than 7 µM and the minimal effective concentration under setting [3] was less than 1 µM.

Turning to `O=C(CCCN1CCN(c2ccc(C(F)(F)F)nc2)CC1)N1CCC(Nc2ccc([N+](=O)[O-])c(C(F)(F)F)c2)CC1` [Example 149, 1-[4-(4-nitro-3-trifluoromethyl-phenylamino)-piperidin-1-yl]-4-[4-(6-trifluoromethyl-pyridin-3-yl)-piperazin-1-yl]-butan-1-one], the minimal effective concentration is less than 1 µM under setting [1], less than 7 µM under setting [2] and less than 1 µM under setting [3].

For the molecule `O=C(CCCN1CCN(c2nnc(C(F)(F)F)s2)CC1)N1CCC(Nc2ccc([N+](=O)[O-])c(C(F)(F)F)c2)CC1` [Example 153, 1-[4-(4-nitro-3-trifluoromethyl-phenylamino)-piperidin-1-yl]-4-[4-(5-trifluoromethyl-1,3,4-thiadiazol-2-yl)-piperazin-1-yl]-butan-1-one], the minimal effective concentration was less than 1 µM under setting [1], less than 7 µM under setting [2] and less than 1 µM under setting [3].

Consider `N#Cc1ccc(NC2CCN(C(=O)CCCC3CCN(c4ccc(C(F)(F)F)cc4)CC3)CC2)cc1C(F)(F)F` [Example 156, 2-trifluoromethyl-4-(1-{4-[1-(4-trifluoromethyl-phenyl)-piperidin-4-yl]-butyryl}-piperidin-4-ylamino)-benzonitrile], for which the minimal effective concentration reads like this: under setting [4], less than 1 µM; under setting [5], less than 7 µM; under setting [6], less than 1 µM.

Turning to `CC(C)(C)c1ccc(N2CCCN(CCCC(=O)N3CCC(Nc4ccc([N+](=O)[O-])c(C(F)(F)F)c4)CC3)CC2)cc1` [Example 163, 4-[4-(4-tert-butyl-phenyl)-[1,4]diazepan-1-yl]-1-[4-(4-nitro-3-trifluoromethyl-phenylamino)-piperidin-1-yl]-butan-1-one], the minimal effective concentration is, setting by setting: under setting [1], less than 1 µM; under setting [2], less than 7 µM; under setting [3], less than 1 µM.

As for `CC(C)(C)c1ccc(N2CCN(CCCC(=O)N3CC[C@@H](Nc4ccc([N+](=O)[O-])c(C(F)(F)F)c4)C3)CC2)cc1` [Example 168, 4-[4-(4-tert-butyl-phenyl)-piperazin-1-yl]-1-[(R)-3-(4-nitro-3-trifluoromethyl-phenylamino)-pyrrolidin-1-yl]-butan-1-one], the minimal effective concentration is, setting by setting: under setting [1], less than 1 µM; under setting [2], less than 7 µM; under setting [3], less than 1 µM.

In the case of `O=C(CCN1CCN(c2ccccc2)CC1)N1CCC(Nc2ccc([N+](=O)[O-])c(C(F)(F)F)c2)CC1` [Example 169], the minimal effective concentration under setting [5] is less than 7 µM.

For the molecule `O=C(CCN1CCN(c2ccccc2)CC1)N1CCC(Nc2ccc([N+](=O)[O-])c(C(F)(F)F)c2)CC1` [Example 171], the minimal effective concentration is less than 1 µM under setting [4] and less than 1 µM under setting [6].

`O=C(COC1CCN(c2ccc([N+](=O)[O-])c(C(F)(F)F)c2)CC1)N1CCN(c2ccc(Cl)cc2)CC1` [Example 179]: under setting [4], the minimal effective concentration was less than 1 µM.

In the case of `N#Cc1ccc(N2CCN(C(=O)COC3CCN(c4ccc([N+](=O)[O-])c(C(F)(F)F)c4)CC3)CC2)cc1` [Example 180], the minimal effective concentration under setting [4] was less than 1 µM.
